Data set [1] concerns the target T1, Cytochrome P450 3A4 (Homo sapiens, UniProt P08684). Description: Inhibition of human recombinant CYP3A4 assessed as biotransformation of […] measured every minute for 15 mins by fluorescence intensity assay. The data set is classed as ADME.
The next data set relates to MCF7. Description: Cytotoxicity against human MCF7 cells at 10 uM. It is filed as functional, cell-based.
In data set [2] the target is T1, Cytochrome P450 3A4. Description: Inhibition of human recombinant CYP3A4 assessed as biotransformation of […] at 10 uM measured every minute for 15 mins by fluorescence intensity assay. The data set is classed as ADME.

pKi: −log10 of the molar value. Activity calls are given as the source filed them. No cut-off for these calls is given here.

The pKi is the Ki on a negative log10 scale, so that one unit is a factor of ten.

T1 sequence (P08684 whole entry): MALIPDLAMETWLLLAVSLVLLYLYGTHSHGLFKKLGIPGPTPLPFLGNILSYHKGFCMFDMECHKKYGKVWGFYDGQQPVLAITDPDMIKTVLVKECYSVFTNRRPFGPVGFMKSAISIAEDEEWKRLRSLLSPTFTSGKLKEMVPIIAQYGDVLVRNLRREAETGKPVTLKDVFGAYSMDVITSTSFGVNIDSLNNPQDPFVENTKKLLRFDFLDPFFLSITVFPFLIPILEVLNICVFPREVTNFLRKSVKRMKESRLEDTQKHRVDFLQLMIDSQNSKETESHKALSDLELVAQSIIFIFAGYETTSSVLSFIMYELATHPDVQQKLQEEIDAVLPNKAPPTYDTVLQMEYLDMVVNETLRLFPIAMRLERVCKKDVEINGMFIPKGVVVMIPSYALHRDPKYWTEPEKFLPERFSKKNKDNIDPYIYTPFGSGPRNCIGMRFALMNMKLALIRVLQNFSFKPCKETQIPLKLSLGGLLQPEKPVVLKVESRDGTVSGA

On to `COCO[C@H]([C@@H]1OC(C)(C)O[C@H]1COS(=O)(=O)c1ccc(C)cc1)[C@H](CNC(=O)c1ccccc1)c1ccc2c(c1)OCO2`, for which the pKi at Cytochrome P450 3A4 [1] was 7.15. Further, the result in the data set on MCF7 was inactive.

For `COCO[C@H]([C@@H]1OC(C)(C)O[C@H]1CO[Si](C)(C)C(C)(C)C)[C@H](CO)c1ccc2c(c1)OCO2`, the Ki result at Cytochrome P450 3A4 [2] is recorded as “Not Active”.

As for `COCO[C@H]([C@@H]1OC(C)(C)O[C@H]1CO[Si](C)(C)C(C)(C)C)[C@H](CNC(=O)OC(C)(C)C)c1ccc2c(c1)OCO2`, on Cytochrome P450 3A4 [1], the pKi was 6.62. The outcome in the data set with MCF7 was inactive.

In the case of `COCO[C@H]([C@@H]1OC(C)(C)O[C@H]1CO[Si](C)(C)C(C)(C)C)[C@H](CNC(=O)c1ccccc1)c1ccc2c(c1)OCO2`, on Cytochrome P450 3A4 [1], the pKi is 7.52. For the same molecule, in the data set with MCF7, the outcome was inactive.

In the case of `CC1(C)O[C@@H]([C@H](O)[C@@H](CNC(=O)c2ccccc2)c2ccc3c(c2)OCO3)[C@H](CO)O1`, the outcome in the data set with MCF7 was inactive.

`CC1(C)O[C@@H]([C@H](O)[C@@H](CNC(=O)c2ccccc2)c2ccc3c(c2)OCO3)[C@H](CO[Si](C)(C)C(C)(C)C)O1`: the result in the data set on MCF7 was inactive.

Regarding `O=C(NC[C@H](c1ccc2c(c1)OCO2)[C@H](O)[C@H](O)[C@@H](O)CO)c1ccccc1`, the outcome with MCF7 was inactive.

For the molecule `COCO[C@@H]([C@@H]1OC(C)(C)O[C@H]1CO[Si](c1ccccc1)(c1ccccc1)C(C)(C)C)[C@@H](CNC(=O)c1ccccc1)c1ccc2c(c1)OCO2`, the outcome in the data set with MCF7 was inactive.

Consider `COCO[C@@H]([C@@H]1OC(C)(C)O[C@H]1COC(C)=O)[C@@H](CNC(=O)c1ccccc1)c1ccc2c(c1)OCO2`, for which the outcome with MCF7 was inactive.

Turning to `O=C(NC[C@@H](c1ccc2c(c1)OCO2)[C@@H](O)[C@H](O)[C@@H](O)CO)c1ccccc1`, the outcome with MCF7 was inactive.

On to `CC(C)OC(=O)[C@H](c1ccc2c(c1)OCO2)[C@H](O)[C@@H]1OC(C)(C)O[C@H]1CO[Si](C)(C)C(C)(C)C`, for which, at Cytochrome P450 3A4 [2], the Ki result is given as “Not Active”.

As to `COCO[C@@H]([C@@H]1OC(C)(C)O[C@H]1CO)[C@@H](CNC(=O)c1ccccc1)c1ccc2c(c1)OCO2`, the result in the data set with MCF7 was inactive.

`COCO[C@@H]([C@@H]1OC(C)(C)O[C@H]1CO[Si](C)(C)C(C)(C)C)[C@@H](CNC(=O)c1ccccc1)c1ccc2c(c1)OCO2`: the outcome in the data set with MCF7 was inactive.

Take `COCO[C@@H]([C@@H]1OC(C)(C)O[C@H]1COS(=O)(=O)c1ccc(C)cc1)[C@@H](CNC(=O)c1ccccc1)c1ccc2c(c1)OCO2`: the outcome with MCF7 was inactive.

For `COCO[C@H]([C@@H]1OC(C)(C)O[C@H]1CO)[C@H](CNC(=O)c1ccccc1)c1ccc2c(c1)OCO2`, the pKi at Cytochrome P450 3A4 [1] was 5.75. In addition, in the data set with MCF7, the result was inactive.

Regarding `COCO[C@H]([C@@H]1OC(C)(C)O[C@H]1CO[Si](C)(C)C(C)(C)C)[C@H](CN=[N+]=[N-])c1ccc2c(c1)OCO2`, the Ki result on Cytochrome P450 3A4 [2] is “Not Active”. Moreover, the outcome in the data set on MCF7 was inactive.

Consider `COCO[C@@H]([C@@H]1OC(C)(C)O[C@H]1CO[Si](C)(C)C(C)(C)C)[C@@H](CNC(=O)OC(C)(C)C)c1ccc2c(c1)OCO2`, for which, in the data set with MCF7, the result was inactive.

For the origin of these results see ChEMBL document CHEMBL1156289, “Potent and selective inhibition of human cytochrome P450 3A4 by seco-pancratistatin structural analogs” (Bioorg Med Chem Lett, 2010).
